In ChEMBL document CHEMBL5032490, “Neuroactive Type-A γ-Aminobutyric Acid Receptor Allosteric Modulator Steroids from the Hypobranchial Gland of Marine Mollusk, Conus geographus” (J Med Chem, 2021):
Active and inactive are the calls of the source. No cut-off for these calls is given here.

How the values were obtained:
[1] = Induction of ATP and Kcl-induced increase in cytosolic Ca2+ ion concentration mouse peptidergic nociceptive DRG neuron assessed as neuron population at 10 uM measured after 1 hr by Fura2AM dye based fluorescence microscopic analysis; assay type: functional
Neuron [2] = assay: Negative allosteric modulation of human GABA receptor expressed in mouse DRG neurons assessed as inhibition of 340 nM GABA-induced responses at 0.5 uM using c-LTMRS; assay type: tissue-based; conditions: filed as negative allosteric modulator
[3] = Induction of cytosolic calcium ion concentration in mouse non-peptidergic nociceptive DRG neuron at 10 uM measured after 1 hr by Fura2AM dye based fluorescence microscopic analysis; assay type: functional
HEK = assay: Negative allosteric modulation of human GABA receptor expressed in HEK cells assessed as inhibition of GABA-induced current in presence of EC20 concentration of GABA by patch clamp method; assay type: cell-based; conditions: filed as negative allosteric modulator
[4] = Induction of ATP and Kcl-induced increase in cytosolic Ca2+ ion concentration mouse […] assessed as neuron population at 10 uM measured after 1 hr by Fura2AM dye based fluorescence microscopic analysis; assay type: functional
Neuron [5] = assay: Negative allosteric modulation of human GABA receptor expressed in mouse DRG neurons assessed as inhibition of 340 nM GABA-induced responses at 0.5 uM using cold thermo-sensors; assay type: tissue-based; conditions: filed as negative allosteric modulator
Neuron [6] = assay: Negative allosteric modulation of human GABA receptor expressed in mouse DRG neurons assessed as inhibition of 500 nM GABA-induced response at 0.5 uM; assay type: tissue-based; conditions: filed as negative allosteric modulator
Mus musculus [7] = assay: Antinociception activity in mouse model assessed as reduction in thermal hypersensitivity at 2 to 50 mg/kg, ip by hot plate test; assay type: functional, organism-based; conditions: dose 2-50 mg/kg
Neuron [8] = assay: Negative allosteric modulation of mouse GABA receptor in mouse non-peptidergic nociceptive DRG neurons assessed as inhibition of KCl-induced response at 10 uM; assay type: tissue-based; conditions: filed as negative allosteric modulator
Mus musculus [9] = assay: Antinociceptive activity in mouse assessed as total number of responses at 2 to 50 mg/kg, ip by Von Frey test; assay type: functional, organism-based; conditions: dose 2-50 mg/kg
[10] = target: T1, GABA-A receptor; alpha-1/beta-3/gamma-2 (Homo sapiens, UniProt P14867+P18507+P28472); assay: Negative allosteric modulation activity at human GABAA alpha1beta3gamma2 stably expressed in HEK cells by whole cell patch clamp method; assay type: cell-based
T1 sequence (P14867 whole entry): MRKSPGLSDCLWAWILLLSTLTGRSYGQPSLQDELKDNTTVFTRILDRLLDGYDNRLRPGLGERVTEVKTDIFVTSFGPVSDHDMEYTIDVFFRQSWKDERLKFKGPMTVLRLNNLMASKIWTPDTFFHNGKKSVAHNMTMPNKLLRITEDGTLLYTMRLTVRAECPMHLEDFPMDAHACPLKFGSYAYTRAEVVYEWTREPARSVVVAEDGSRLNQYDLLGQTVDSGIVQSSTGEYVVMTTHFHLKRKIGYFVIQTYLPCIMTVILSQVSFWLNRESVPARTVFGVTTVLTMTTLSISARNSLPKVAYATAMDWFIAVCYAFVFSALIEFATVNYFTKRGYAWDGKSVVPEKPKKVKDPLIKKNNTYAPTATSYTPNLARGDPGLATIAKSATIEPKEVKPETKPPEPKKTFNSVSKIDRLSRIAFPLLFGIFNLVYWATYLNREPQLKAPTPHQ
T1 sequence (P18507 whole entry): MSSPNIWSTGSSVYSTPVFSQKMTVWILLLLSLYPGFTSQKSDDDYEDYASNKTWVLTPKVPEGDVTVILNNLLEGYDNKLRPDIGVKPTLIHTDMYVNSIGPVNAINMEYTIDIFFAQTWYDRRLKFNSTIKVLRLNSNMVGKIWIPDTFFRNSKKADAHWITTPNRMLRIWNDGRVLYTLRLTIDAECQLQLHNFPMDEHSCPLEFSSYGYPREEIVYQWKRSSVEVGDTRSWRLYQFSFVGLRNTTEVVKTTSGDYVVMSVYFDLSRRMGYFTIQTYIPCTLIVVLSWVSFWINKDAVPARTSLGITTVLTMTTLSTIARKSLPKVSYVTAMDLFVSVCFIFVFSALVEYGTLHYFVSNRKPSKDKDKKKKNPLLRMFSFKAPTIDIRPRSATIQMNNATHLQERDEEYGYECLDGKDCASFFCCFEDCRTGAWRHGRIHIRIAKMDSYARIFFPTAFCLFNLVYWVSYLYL
T1 sequence (P28472 whole entry): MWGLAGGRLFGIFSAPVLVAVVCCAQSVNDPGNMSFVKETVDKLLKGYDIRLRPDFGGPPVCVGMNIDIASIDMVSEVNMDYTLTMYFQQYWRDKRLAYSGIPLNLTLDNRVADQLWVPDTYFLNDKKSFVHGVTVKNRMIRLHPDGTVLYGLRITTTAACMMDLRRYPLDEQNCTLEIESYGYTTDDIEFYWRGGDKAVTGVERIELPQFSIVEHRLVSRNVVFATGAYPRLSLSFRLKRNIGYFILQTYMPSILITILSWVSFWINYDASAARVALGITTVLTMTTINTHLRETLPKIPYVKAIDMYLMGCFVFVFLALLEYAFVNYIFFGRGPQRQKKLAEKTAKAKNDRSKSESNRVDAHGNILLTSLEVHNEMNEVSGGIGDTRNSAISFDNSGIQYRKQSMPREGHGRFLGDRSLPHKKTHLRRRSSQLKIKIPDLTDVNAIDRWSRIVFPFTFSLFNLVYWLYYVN

[11] = Induction of ATP and Kcl-induced increase in cytosolic Ca2+ ion concentration mouse non-peptidergic nociceptive DRG neuron assessed as neuron population at 10 uM measured after 1 hr by Fura2AM dye based fluorescence microscopic analysis; assay type: functional

## CC(C)CCC[C@@H](C)[C@H]1CC[C@H]2[C@@H]3C(=O)C=C4C=CCC[C@]4(C)[C@H]3CC[C@]12C
[1]
  Activity: 56%
Neuron [2]
  Activity: Active
[3]
  Activity: 27%
HEK
  Activity: Active
[4]
  Activity: 4%
Neuron [5]
  Activity: Active
Neuron [6]
  Activity: Active
Mus musculus [7]
  Activity: Active
Neuron [8]
  Activity: Active
Mus musculus [9]
  Activity: Active
[10]
  IC50: 21 µM
[11]
  Activity: 39%
